Patent publication US20260201008A1, “SECRETIN-DERIVED GLP1R SELECTIVE AGONISTS” (GUBRA A/S, priority 2023, published 2026)
Like-named read-outs stand apart in the source and are kept apart here. Numbered stars: 1 amine (or outer) side, 2 acyl side, 3 side chain; on linkers, the order of the positions; unused ones are H or OH. Square brackets hold non-standard residues; d marks the D form. Side chains are listed from the residue outwards. Peptide text beside a SMILES is read from it. * marks the point of attachment. C20 diacid = O=C(O)CCCCCCCCCCCCCCCCCCC(=O)*; γGlu = O=C(O)[C@H](CCC(=O)[*:2])N[*:1]; AEEA = NCCOCCOCC(=O)O; Aib = CC(C)(N)C(=O)O

Legend:
GLP1R = GLP1R (Homo sapiens, UniProt P43220); test: hGLP1R potency, cAMP accumulation in CHO-K1 cells stably overexpressing hGLP1R; assay type: cell-based; design: host or cells: CHO-K1; conditions: for EC50: cAMP accumulation, CHO-K1 cells overexpressing hGLP1R; for SCTR EC50/GLP1R EC50 ratio: selectivity for hGLP1R over hSCTR, cAMP accumulation in CHO-K1 cells; for Selectivity: SCTR EC50/GLP1R EC50 ratio
Outline: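 2000 cells/well, DPBS + 0.05% casein + 0.5 mM IBMX; 30 min RT stimulation; HTRF cAMP detection after 1 h. Purified: 3-fold ×11, n=2; crude: 10-fold ×5, n=1. EC50 by variable-slope fit.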

SCTR = SCTR (Homo sapiens, UniProt P47872); test: hSCTR potency, cAMP accumulation in CHO-K1 cells stably overexpressing hSCTR; assay type: cell-based; design: alternatively Euroscreen ES-712-AF; FAST-0161L; host or cells: CHO-K1; conditions: cAMP accumulation, CHO-K1 cells overexpressing hSCTR
Outline: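 Thawed CHO-K1 cells carrying stable hSCTR are plated into casein/IBMX buffer (0.05%, 0.5 mM), dosed immediately for 30 min at room temperature, then cAMP is detected by TR-FRET. Purified peptides run as 11 three-fold dilutions in duplicate, and curves are fitted with variable slope.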

[1] = Fibril formation of crude library peptides (Thioflavin T); assay type: physicochemical; design: key: average ThT fluorescence emission at 480 nm (ex 450 nm), raw units; conditions: Physical stability of peptides
Outline: (§1)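 Turbidity is the absorbance at 600 nm, taken before heating. Fibril signal is the mean ThT emission at 480 nm (450 nm excitation), read every 10 min over 72 h at 40° C with 700 rpm shaking between reads. Peptides at 267 μM, pH 4.0 acetate or pH 7.0 phosphate buffer (50 mM), 4 μM ThT final.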

[2] = Turbidity of crude library peptides (absorbance at 600 nm); assay type: physicochemical; conditions: Physical stability of peptides
Outline: as §1

[3] = read-out: hGLP1R pEC50 (converted)
[4] = read-out: hSCTR pEC50 (converted)
[5] = read-out: pEC50 hGLPR1 (converted)
[6] = read-out: pEC50 hSCTR (converted)

GLP1R, sequence (P43220 24-463): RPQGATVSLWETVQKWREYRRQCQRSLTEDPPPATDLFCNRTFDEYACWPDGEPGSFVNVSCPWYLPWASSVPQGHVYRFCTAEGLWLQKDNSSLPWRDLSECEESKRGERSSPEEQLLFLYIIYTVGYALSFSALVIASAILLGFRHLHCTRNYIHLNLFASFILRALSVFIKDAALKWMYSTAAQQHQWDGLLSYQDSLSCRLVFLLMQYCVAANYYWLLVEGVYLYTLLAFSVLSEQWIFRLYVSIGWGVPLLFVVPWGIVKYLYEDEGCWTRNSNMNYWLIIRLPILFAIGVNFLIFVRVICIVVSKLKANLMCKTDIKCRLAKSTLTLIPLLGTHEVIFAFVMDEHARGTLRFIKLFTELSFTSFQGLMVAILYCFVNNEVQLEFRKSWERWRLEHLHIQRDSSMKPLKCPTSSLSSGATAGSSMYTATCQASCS
SCTR, sequence (P47872 23-440): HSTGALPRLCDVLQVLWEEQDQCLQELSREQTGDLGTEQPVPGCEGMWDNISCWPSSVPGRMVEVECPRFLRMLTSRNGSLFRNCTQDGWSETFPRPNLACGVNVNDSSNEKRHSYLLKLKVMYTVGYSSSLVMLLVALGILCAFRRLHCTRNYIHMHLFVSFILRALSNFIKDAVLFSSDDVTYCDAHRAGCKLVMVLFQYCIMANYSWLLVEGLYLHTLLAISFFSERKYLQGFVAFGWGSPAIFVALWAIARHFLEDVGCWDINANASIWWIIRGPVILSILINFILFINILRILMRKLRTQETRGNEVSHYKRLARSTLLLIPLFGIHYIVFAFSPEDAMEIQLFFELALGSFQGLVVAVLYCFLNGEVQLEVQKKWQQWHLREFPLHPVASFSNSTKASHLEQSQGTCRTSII

Compound | EC50 (GLP1R; [3]) [nM] | SCTR EC50/GLP1R EC50 ratio (GLP1R) | EC50 (SCTR; [4]) [nM] | Fibril formation [1] | Turbidity (pH 7) [2] | Selectivity (GLP1R) | EC50 (GLP1R; [5]) [nM] | EC50 (SCTR; [6]) [nM]
CC(C)C[C@H](NC(=O)[C@H](Cc1ccccc1)NC(=O)[C@H](CCCNC(=N)N)NC(=O)[C@H](CCC(N)=O)NC(=O)C(C)(C)NC(=O)C(C)(C)NC(=O)[C@H](C)NC(=O)[C@H](CCC(=O)O)NC(=O)[C@H](CCC(=O)O)NC(=O)[C@H](CCCCNC(=O)COCCOCCNC(=O)COCCOCCNC(=O)CC[C@H](NC(=O)CCCCCCCCCCCCCCCCCCC(=O)O)C(=O)O)NC(=O)[C@H](CC(C)C)NC(=O)[C@H](Cc1ccc(O)cc1)NC(=O)[C@H](CO)NC(=O)[C@@H](NC(=O)[C@H](CC(=O)O)NC(=O)[C@H](CO)NC(=O)[C@@H](NC(=O)[C@H](Cc1ccccc1)NC(=O)[C@@H](NC(=O)CNC(=O)[C@H](CCC(=O)O)NC(=O)C(C)(C)NC(=O)[C@@H](N)Cc1c[nH]cn1)[C@@H](C)O)[C@@H](C)O)C(C)C)C(=O)N[C@@H](CCC(=O)O)C(=O)N[C@@H](Cc1c[nH]cn1)C(=O)N[C@@H](CC(C)C)C(=O)N[C@H](C(N)=O)C(C)C [compound 152] (H-H[Aib]EGTFTSDVSYLK([AEEA-AEEA-γGlu-C20 diacid])EEA[Aib][Aib]QRFLEHLV-NH2) | 0.0126 | 367578 | 3980 | 3105 | 0.08 | – | – | –
CC(C)C[C@H](NC(=O)[C@H](CCC(=O)O)NC(=O)[C@H](CCCCNC(=O)COCCOCCNC(=O)COCCOCCNC(=O)CC[C@H](NC(=O)CCCCCCCCCCCCCCCCCCC(=O)O)C(=O)O)NC(=O)[C@H](CC(C)C)NC(=O)[C@@H](NC(=O)[C@H](CO)NC(=O)[C@@H](NC(=O)[C@H](CC(=O)O)NC(=O)[C@H](CO)NC(=O)[C@@H](NC(=O)[C@H](Cc1ccccc1)NC(=O)[C@@H](NC(=O)CNC(=O)[C@H](CCC(=O)O)NC(=O)C(C)(C)NC(=O)[C@@H](N)Cc1c[nH]cn1)[C@@H](C)O)[C@@H](C)O)C(C)C)[C@@H](C)O)C(=O)N[C@@H](C)C(=O)N[C@@H](C)C(=O)NC(C)(C)C(=O)N[C@@H](CCC(N)=O)C(=O)N[C@@H](CCCNC(=N)N)C(=O)N[C@@H](Cc1ccccc1)C(=O)N[C@@H](CC(C)C)C(=O)N[C@@H](CCC(=O)O)C(=O)N[C@@H](Cc1c[nH]cn1)C(=O)N[C@@H](CC(C)C)C(=O)N[C@H](C(N)=O)C(C)C [compound 79] (H-H[Aib]EGTFTSDVSTLK([AEEA-AEEA-γGlu-C20 diacid])ELAA[Aib]QRFLEHLV-NH2) | – | – | – | 12190 | 0.08 | 30234 | 0.1 | 3160
CC(C)C[C@H](NC(=O)[C@H](Cc1ccccc1)NC(=O)[C@H](CCCNC(=N)N)NC(=O)[C@H](CCC(N)=O)NC(=O)C(C)(C)NC(=O)[C@H](C)NC(=O)[C@H](C)NC(=O)[C@@H](NC(=O)[C@H](CCC(=O)O)NC(=O)[C@H](CCCCNC(=O)COCCOCCNC(=O)COCCOCCNC(=O)CC[C@H](NC(=O)CCCCCCCCCCCCCCCCCCC(=O)O)C(=O)O)NC(=O)[C@H](CC(C)C)NC(=O)[C@H](Cc1ccccc1)NC(=O)[C@H](CO)NC(=O)[C@@H](NC(=O)[C@H](CC(=O)O)NC(=O)[C@H](CO)NC(=O)[C@@H](NC(=O)[C@H](Cc1ccccc1)NC(=O)[C@@H](NC(=O)CNC(=O)[C@H](CCC(=O)O)NC(=O)C(C)(C)NC(=O)[C@@H](N)Cc1c[nH]cn1)[C@@H](C)O)[C@@H](C)O)C(C)C)[C@@H](C)O)C(=O)N[C@@H](CCC(=O)O)C(=O)N[C@@H](Cc1c[nH]cn1)C(=O)N[C@@H](CC(C)C)C(=O)N[C@H](C(N)=O)C(C)C [compound 25] (H-H[Aib]EGTFTSDVSFLK([AEEA-AEEA-γGlu-C20 diacid])ETAA[Aib]QRFLEHLV-NH2) | – | – | – | 8584 | 0.08 | 8268 | 1 | 7940
CC[C@H](C)[C@H](NC(=O)[C@H](Cc1ccccc1)NC(=O)[C@H](CCCNC(=N)N)NC(=O)[C@H](CCC(N)=O)NC(=O)[C@H](CC(C)C)NC(=O)[C@H](C)NC(=O)[C@H](C)NC(=O)CNC(=O)[C@H](CCC(=O)O)NC(=O)[C@H](CC(C)C)NC(=O)[C@H](CC(C)C)NC(=O)CNC(=O)[C@H](CO)NC(=O)[C@@H]1CCCN1C(=O)[C@H](CC(=O)O)NC(=O)[C@H](CO)NC(=O)[C@@H](NC(=O)[C@H](Cc1ccccc1)NC(=O)[C@@H](NC(=O)CNC(=O)[C@H](CCC(=O)O)NC(=O)C(C)(C)NC(=O)[C@@H](N)Cc1c[nH]cn1)[C@@H](C)O)[C@@H](C)O)C(=O)N[C@@H](CCC(N)=O)C(=O)N[C@@H](Cc1c[nH]c2ccccc12)C(=O)N[C@@H](CC(C)C)C(=O)N[C@H](C(N)=O)C(C)C [compound 123] (H-H[Aib]EGTFTSDPSGLLEGAALQRFIQWLV-NH2) | 10 | 671 | 6310 | 3764 | 0.11 | – | – | –
CC[C@H](C)[C@H](NC(=O)[C@H](Cc1ccccc1)NC(=O)[C@H](CCCNC(=N)N)NC(=O)[C@H](CCC(N)=O)NC(=O)[C@H](CC(C)C)NC(=O)[C@H](C)NC(=O)[C@H](C)NC(=O)CNC(=O)[C@H](CCC(=O)O)NC(=O)[C@H](CC(C)C)NC(=O)[C@H](CC(C)C)NC(=O)[C@H](Cc1ccc(O)cc1)NC(=O)[C@H](CO)NC(=O)[C@@H](NC(=O)[C@H](CC(=O)O)NC(=O)[C@H](CO)NC(=O)[C@@H](NC(=O)[C@H](Cc1ccccc1)NC(=O)[C@@H](NC(=O)CNC(=O)[C@H](CCC(=O)O)NC(=O)C(C)(C)NC(=O)[C@@H](N)Cc1c[nH]cn1)[C@@H](C)O)[C@@H](C)O)[C@@H](C)CC)C(=O)N[C@@H](CCC(N)=O)C(=O)N[C@@H](Cc1c[nH]c2ccccc12)C(=O)N[C@@H](CC(C)C)C(=O)N[C@H](C(N)=O)C(C)C [compound 112] (H-H[Aib]EGTFTSDISYLLEGAALQRFIQWLV-NH2) | 0.0158 | 164097 | 2510 | 93630 | 0.29 | – | – | –
CC(C)C[C@H](NC(=O)[C@H](Cc1ccccc1)NC(=O)[C@H](CCCNC(=N)N)NC(=O)[C@H](CCC(N)=O)NC(=O)[C@H](CC(C)C)NC(=O)C(C)(C)NC(=O)[C@H](C)NC(=O)[C@H](CCC(=O)O)NC(=O)[C@H](CCC(=O)O)NC(=O)[C@H](CCCCNC(=O)COCCOCCNC(=O)COCCOCCNC(=O)CC[C@H](NC(=O)CCCCCCCCCCCCCCCCCCC(=O)O)C(=O)O)NC(=O)[C@H](CC(C)C)NC(=O)[C@H](CC(C)C)NC(=O)[C@H](CO)NC(=O)[C@@H](NC(=O)[C@H](CC(=O)O)NC(=O)[C@H](CO)NC(=O)[C@@H](NC(=O)[C@H](Cc1ccccc1)NC(=O)[C@@H](NC(=O)CNC(=O)[C@H](CCC(=O)O)NC(=O)C(C)(C)NC(=O)[C@@H](N)Cc1c[nH]cn1)[C@@H](C)O)[C@@H](C)O)C(C)C)C(=O)N[C@@H](CCC(=O)O)C(=O)N[C@@H](Cc1c[nH]cn1)C(=O)N[C@@H](CC(C)C)C(=O)N[C@H](C(N)=O)C(C)C [compound 149] (H-H[Aib]EGTFTSDVSLLK([AEEA-AEEA-γGlu-C20 diacid])EEA[Aib]LQRFLEHLV-NH2) | 0.0126 | 2619 | 31.6 | 2878 | 0.08 | – | – | –
CC[C@H](C)[C@H](NC(=O)[C@H](Cc1ccccc1)NC(=O)[C@H](CCCNC(=N)N)NC(=O)[C@H](CCC(N)=O)NC(=O)[C@H](CC(C)C)NC(=O)[C@H](C)NC(=O)[C@H](C)NC(=O)CNC(=O)[C@H](CCC(=O)O)NC(=O)[C@H](CC(C)C)NC(=O)[C@H](CC(C)C)NC(=O)[C@H](CCC(=O)O)NC(=O)[C@H](CO)NC(=O)[C@@H](NC(=O)[C@H](CC(=O)O)NC(=O)[C@H](CO)NC(=O)[C@@H](NC(=O)[C@H](Cc1ccccc1)NC(=O)[C@@H](NC(=O)CNC(=O)[C@H](CCC(=O)O)NC(=O)C(C)(C)NC(=O)[C@@H](N)Cc1c[nH]cn1)[C@@H](C)O)[C@@H](C)O)[C@@H](C)CC)C(=O)N[C@@H](CCC(N)=O)C(=O)N[C@@H](Cc1c[nH]c2ccccc12)C(=O)N[C@@H](CC(C)C)C(=O)N[C@H](C(N)=O)C(C)C [compound 119] (H-H[Aib]EGTFTSDISELLEGAALQRFIQWLV-NH2) | 0.0251 | 2127 | 50.1 | 13897 | 0.12 | – | – | –
